The values that follow are results of earlier work, collected in patent US9345804B2, “S-nitrosothiol-generating skin dressings” (Insense Limited, priority 2007, dated 2016).

For data set [1] the following is noted: at 25° C.
The conditions of data set [2]: under normal conditions.

`O=NO` [nitrite]: in data set [1], the pKa is listed as 3.4.

nitrosoglycerol: the “time to almost complete decomposition” value in data set [2] was “hours/days”.

The pKa is the pH at which an ionisable group is half protonated.
